For series [1] the following is noted: at concentrations displaying anti-retrovirus activity.
For series [2], the system named is retrovirus (HIV). The following applies: read-out: average for the active concentrations (IC50); technique of Pauwells et al.; first of the two values printed.
For series [3] the following is noted: EP 484281 and Eur. J. Immunol., 17, 1359 (1987); cited from earlier work.

In the case of `C/C=C/C[C@@H](C)[C@@H](O)[C@H]1C(=O)N[C@@H](CC)C(=O)N(C)[C@H](SC)C(=O)N(C)[C@@H](CC(C)(C)O)C(=O)N[C@@H](C(C)C)C(=O)N(C)[C@@H](CC(C)C)C(=O)N[C@@H](C)C(=O)N[C@H](C)C(=O)N(C)[C@@H](CC(C)C)C(=O)N(C)[C@@H](CC(C)C)C(=O)N(C)[C@@H](C(C)C)C(=O)N1C` [formula (I), [(R)-Methylthio-Sar]^3-[4'-hydroxy-MeLeu]^4-cyclosporin A], the “cytotoxic or cytostatic effect” value in series [1] was “devoid of any cytotoxic or cytostatic effect”. For the same compound, the IC50 in series [2] is 70 nM.

Take [4'-hydroxy-MeLeul]^4 -cyclosporin: the immunosuppressing nature result in series [3] is listed as “are not immunosuppressants”.
